The text below walks through data of US20150065440A1 (Progen Pharmaceuticals Limited, priority 2007, published 2015).

The subject of series [1] is RSV. The experiment in a line: Virus inactivation assay, RSV. Format: cell-based. The settings on record: 15 min at 37° C. On the procedure:
(§1) Approximately 10^5 plaque-forming units of HSV-1 KOS321 or HSV-2 333 stain and specific concentrations of the test compound in 200 μL of serum-free EMEM were mixed and incubated at 37° C. for 15 min. The mixtures were diluted to the non-inhibitory concentrations of the test compound, and then subjected to the infectious titer determination as described under the viral plaque number-reduction assay. In case of RSV, the assay was carried out in similar manner using DMEM supplemented with 2% heat-inactivated fetal calf serum instead of EMEM. To evaluate the effect of a low pH value or the presence of cervical secretions; the virus (HSV-2 333) and compounds were diluted in a low pH buffer (4.5) or cervical secretions were added to the compound dilutions before mixing with the virus (HSV-2 333). The cervical secretions were prepared from cervical swabs generated from 3 different individuals. The swabs were rinsed with distilled water and centrifuged at 5000×g for 10 min. The supernatant was kept at −20° C. In the case of RSV, the assay was carried out in a similar manner using DMEM supplemented with 2% heat-inactivated fetal calf serum instead of EMEM.

Series [2] deals with HSV-1. The experiment in a line: Virus inactivation assay, HSV-1. Format: cell-based. As to conditions: 15 min at 37° C. On the procedure:
as §1

The test system of series [3] is HSV-1. The experiment in a line: Viral plaque number-reduction assay, HSV-1. The settings on record: GMK AH1 cells. On the procedure:
(§2) African green monkey kidney (GMK AH1) cells^46 were cultured in Eagle's minimum essential medium (EMEM) supplemented with 2% calf serum, 0.05% Primaton RL substance (Kraft Inc., Norwich, USA) and antibiotics. Human epidermoid carcinoma (HEp-2) cells were cultured in Dulbecco's modified EMEM (DMEM) supplemented with 10% fetal calf serum and antibiotics. […] The RSV strain A-2^50 was used. The RSV stock was prepared as described by Hallak et al.^51 and stored at −70° C. in the presence of 40% sucrose^52.
(§3) The viral infectivity (the plaque number-reduction) assay and the plaque size-reduction assay were carried out as described previously^17. […] Subsequently, the cells were washed with 2 mL of EMEM and overlaid with 1% methylcellulose solution in EMEM. The plaques were visualized by staining with crystal violet solution after 2 (HSV-2) or 3 (HSV-1) days of incubation at 37° C. […] When the compounds were screened for anti-HSV or anti-RSV activity, mixtures of 200 PFU of the virus and the test compound (100 μg/mL) in serum-free EMEM were incubated for 10 min at room temperature before addition to cells and during the entire period of viral infection of cells and the development of viral plaques. In the plaque size-reduction assay, the compounds were added to cells (in methylcellulose overlay medium) after 2 h period of virus infection of cells in the absence of the inhibitor. After 2-3 days of incubation at 37° C., the viral plaques were visualized by staining the cells with 1% solution of crystal violet. For each compound tested, the images of twenty neighboring plaques were captured using a Leica DC300 digital camera attached to a Leitz-Wetzlar Diavert microscope. The area of each plaque was determined using IM500 image software (Leica). Similar protocols were used for RSV, except that the assays were performed in HEp-2 cells and DMEM supplemented with 2% heat-inactivated fetal calf serum was used instead of EMEM.

Series [4] has as its system HSV-1. The experiment in a line: Anti-HSV screening assay (viral plaques), HSV-1. The settings on record: 100 μg/mL, viral plaques relative to mock treated controls. Format: cell-based. How it is done:
as §2, §3

Structures are written as SMILES.

Turning to `CCCCCCCCCCCCOC1OC(COS(=O)(=O)O)C(OS(=O)(=O)O)C(OS(=O)(=O)O)C1OC1OC(COS(=O)(=O)O)C(OS(=O)(=O)O)C(OC2OC(COS(=O)(=O)O)C(OS(=O)(=O)O)C(OC3OC(COS(=O)(=O)O)C(OS(=O)(=O)O)C(OC4OC(COS(=O)(=O)O)C(OS(=O)(=O)O)C(OS(=O)(=O)O)C4OS(=O)(=O)O)C3OS(=O)(=O)O)C2OS(=O)(=O)O)C1OS(=O)(=O)O` [Compound 4, Dodecyl 2,3,4,6-tetra-O-sodium sulfonato-α-D-mannopyranosyl-(1→3)-2,4,6-tri-O-sodium sulfonato-α-D-mannopyranosyl-(1→3)-2,4,6-tri-O-sodium sulfonato-α-D-mannopyranosyl-(1→3)-2,4,6-tri-O-sodium sulfonato-α-D-mannopyranosyl-(1→2)-3,4,6-tri-O-sodium sulfonato-α-D-mannopyranoside], the “Virus-inactivating activity: viral plaques with compound-treated virus relative to mock-treated controls” value is recorded as 85.2% in series [1] (4 μg/ml); 82.2% in series [1] (20 μg/ml); 47.3% in series [1] (100 μg/ml); 83.9% in series [2] (HSV-1, 1 μg/ml); 79.4% in series [2] (HSV-1, 10 μg/ml); 83.8% in series [2] (HSV-1, 100 μg/ml). Besides, the “Selective index CC50/IC50 HSV-1” value in series [3] is on record as above 190. Besides, the “Residual infectivity (%) HSV-1” value in series [4] turned out to be 2%.
With `CC(C)CCCC(C)C1CCC2C3CCC4CC(OC5OC(COS(=O)(=O)O)C(OS(=O)(=O)O)C(OS(=O)(=O)O)C5OC5OC(COS(=O)(=O)O)C(OS(=O)(=O)O)C(OC6OC(COS(=O)(=O)O)C(OS(=O)(=O)O)C(OC7OC(COS(=O)(=O)O)C(OS(=O)(=O)O)C(OS(=O)(=O)O)C7OS(=O)(=O)O)C6OS(=O)(=O)O)C5OS(=O)(=O)O)CCC4(C)C3CCC12C` [Compound 20, 3β-Cholestanyl 2,3,4,6-tetra-O-sodium sulfonato-α-D-mannopyranosyl-(1→3)-2,4,6-tri-O-sodium sulfonato-α-D-mannopyranosyl-(1→3)-2,4,6-tri-O-sodium sulfonato-α-D-mannopyranosyl-(1→2)-3,4,6-tri-O-sodium sulfonato-α-D-mannopyranoside], the “Virus-inactivating activity: viral plaques with compound-treated virus relative to mock-treated controls” value in series [1] (4 μg/ml) amounted to 102.2%; in series [1] (20 μg/ml), 79.0%; in series [1] (100 μg/ml), 13.3%; in series [2] (HSV-1, 1 μg/ml), 88.6%; in series [2] (HSV-1, 10 μg/ml), 0%; in series [2] (HSV-1, 100 μg/ml), 0%. For the same compound, the “Selective index CC50/IC50 HSV-1” value in series [3] was found to be 52. In addition, the “Residual infectivity (%) HSV-1” value in series [4] amounted to 0%.
